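Protocol summary: plate cells (96-well), add compound at 5 concentrations, incubate 48 h, interpolate endpoints linearly. The concentration for full growth arrest is given as TGI.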
Experiments:
Test in all cases: NCI-60 cell line screen, 48 h
[1] = test system: 786-0 renal
[2] = test system: A498 renal
[3] = test system: A549 NSCLC
[4] = test system: ACHN renal
[5] = test system: CAKI-1 renal
[6] = test system: CCRF-CEM leukemia
[7] = test system: COLO 205 colon
[8] = test system: DLD-1 colon
[9] = test system: DMS 114 small cell lung
[10] = test system: DMS 273 small cell lung
[11] = test system: EKVX NSCLC
[12] = test system: HCC-2998 colon
[13] = test system: HCT-116 colon
[14] = test system: HCT-15 colon
[15] = test system: HL-60(TB) leukemia
[16] = test system: HOP-18 NSCLC
[17] = test system: HOP-62 NSCLC
[18] = test system: HOP-92 NSCLC
[19] = test system: HT29 colon
[20] = test system: IGROV1 ovarian
[21] = test system: K-562 leukemia
[22] = test system: KM12 colon
[23] = test system: KM20L2 colon
[24] = test system: LOX IMVI melanoma
[25] = test system: LXFL 529 NSCLC
[26] = test system: M14 melanoma
[27] = test system: M19-MEL melanoma
[28] = test system: MALME-3M melanoma
[29] = test system: MOLT-4 leukemia
[30] = test system: NCI-H23 lung
[31] = test system: NCI-H460 lung
[32] = test system: NCI-H522 lung
[33] = test system: OVCAR-3 ovarian
[34] = test system: OVCAR-4 ovarian
[35] = test system: OVCAR-5 ovarian
[36] = test system: OVCAR-8 ovarian
[37] = test system: RPMI-8226 leukemia
[38] = test system: RXF 393 renal
[39] = test system: RXF-631 renal
[40] = test system: SF-268 CNS
[41] = test system: SF-295 CNS
[42] = test system: SF-539 CNS
[43] = test system: SK-MEL-2 melanoma
[44] = test system: SK-MEL-28 melanoma
[45] = test system: SK-MEL-5 melanoma
[46] = test system: SK-OV-3 ovarian
[47] = test system: SN12C renal
[48] = test system: SNB-19 CNS
[49] = test system: SNB-75 CNS
[50] = test system: SNB-78 CNS
[51] = test system: SW-620 colon
[52] = test system: TK-10 renal
[53] = test system: U251 CNS
[54] = test system: UACC-257 melanoma
[55] = test system: UACC-62 melanoma
[56] = test system: UO-31 renal
[57] = test system: XF 498 CNS

Measured: TGI

CCCCCCCCCCCCCCCCc1c(C(=O)OC)nc(NN)[nH]c1=O
> 50 µM: [1] | [2] | [3] | [4] | [5] | [6] | [7] | [8] | [9] | [10] | [11] | [12] | [13] | [14] | [15] | [16] | [17] | [18] | [19] | [20] | [21] | [22] | [23] | [24] | [25] | [26] | [27] | [28] | [29] | [30] | [31] | [32] | [33] | [34] | [35] | [36] | [37] | [38] | [39] | [40] | [41] | [42] | [43] | [44] | [45] | [46] | [47] | [48] | [49] | [50] | [51] | [52] | [53] | [54] | [55] | [56] | [57]
